Measured values as given in publication PMC5860131, “Identification of natural products as novel ligands for the human 5-HT2C receptor” (Biophysics Reports, 2018).

Assays:
[1] = biological target: T1, 5-HT2C receptor (Homo sapiens, UniProt P28335, DEL255-298/G251D/H250E/H252N/INS299[…]/L248D/M247A/M300L/T253W); type: binding
T1 construct: the N- and C-terminals were truncated by 39 and 65 residues, respectively; FLAG (N); PreScission protease site + 10× His (C); made in house; host or cells: Spodoptera frugiperda (Sf9), baculovirus
T1 sequence (P28335 with tags, fused parts or gaps with the stated changes limits assumed): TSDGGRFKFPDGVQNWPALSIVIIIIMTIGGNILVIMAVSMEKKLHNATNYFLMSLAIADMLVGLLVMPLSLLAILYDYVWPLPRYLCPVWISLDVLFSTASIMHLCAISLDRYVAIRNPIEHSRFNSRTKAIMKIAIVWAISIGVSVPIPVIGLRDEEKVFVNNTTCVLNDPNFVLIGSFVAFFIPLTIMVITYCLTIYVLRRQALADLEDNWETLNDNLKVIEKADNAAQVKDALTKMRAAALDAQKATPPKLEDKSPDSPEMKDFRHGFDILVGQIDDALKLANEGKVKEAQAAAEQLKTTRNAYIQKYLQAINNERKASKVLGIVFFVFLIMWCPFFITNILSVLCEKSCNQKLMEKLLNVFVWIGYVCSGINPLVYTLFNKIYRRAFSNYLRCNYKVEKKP

[2] = biological target: T2, 5-HT2A receptor (Homo sapiens, UniProt P28223); assay: Ca2+ mobilization assay (Fluo-4, FLIPR), HEK 293T cells stably transfected with 5-HT2A; type: cell-based
T2 construct: expressed in transfected cells; host or cells: HEK 293T, stably transfected
T2 sequence (P28223 whole entry): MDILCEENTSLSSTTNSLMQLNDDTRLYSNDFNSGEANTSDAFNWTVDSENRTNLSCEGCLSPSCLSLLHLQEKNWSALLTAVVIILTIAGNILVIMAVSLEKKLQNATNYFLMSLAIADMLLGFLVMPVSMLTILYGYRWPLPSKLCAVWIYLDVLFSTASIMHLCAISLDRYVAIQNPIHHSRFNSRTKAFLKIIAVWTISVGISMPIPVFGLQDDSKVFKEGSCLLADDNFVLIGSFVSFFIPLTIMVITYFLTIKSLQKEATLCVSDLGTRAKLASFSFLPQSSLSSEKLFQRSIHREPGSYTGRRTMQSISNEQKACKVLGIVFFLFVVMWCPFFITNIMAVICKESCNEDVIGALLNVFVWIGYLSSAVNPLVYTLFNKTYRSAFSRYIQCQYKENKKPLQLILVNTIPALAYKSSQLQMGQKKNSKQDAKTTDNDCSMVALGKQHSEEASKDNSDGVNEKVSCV
Excerpt: The 5-HT2C receptor mainly couples to Gαq proteins. The activated 5-HT2C receptor transmits the signals from the extracellular to the intercellular side using DAG/IP3 (diacyl glycerol/inositol 1,4,5-trisphosphate) as its second massagers (Hannon and Hoyer [2008]). IP3 stimulates the endoplasmic reticulum to release calcium ions into the cytoplasm, which causes the increase of calcium concentration in cytosol. Therefore, calcium mobilization assay is commonly applied to understand how unknown small molecule ligands of 5-HT2C receptor modulate cellular signal transductions. In this case, Fluo-4 Direct dye was used as a fluorescence indicator to detect calcium flux in G protein-coupled receptor expressed cells. The fold of maximum response over average of basal reading is plotted against compound concentration to determine the potency of the compounds (Fig. 3). […]. […] After the dye loaded, cells were placed in a FLIPR^TETRA fluorescence imaging plate reader (Molecular Devices); drug dilutions, prepared at 3× final concentration in FLIPR buffer and aliquotted into 384-well plates, were also added to the FLIPR^TETRA. The fluidics module and plate reader of the FLIPR^TETRA were programmed to read baseline fluorescence for 10 s (1 read/s), then to add 10 μl of drug/well and to read for 6 min (1 read/s). […]

[3] = biological target: T3, 5-HT2C receptor A222^5.46V (Homo sapiens, UniProt P28335, A222V/DEL255-298/G251D/H250E/H252N/INS299[…]/L248D/M247A/M300L/T253W); assay: CPM thermal stability assay, 5-HT2C mutant A222V; type: binding
T3 construct: the N- and C-terminals were truncated by 39 and 65 residues, respectively; PreScission protease site + 10× His (C); made in house
T3 sequence (P28335 with tags, fused parts or gaps with the stated changes): as the sequence (P28335 with tags, fused parts or gaps with the stated changes limits assumed) above, with A183V counted along it
Excerpt: (§1) Based on the binding poses predicted by molecular docking, single-point mutations were designed to test their impact on ligand binding. Mutations of several residues include the highly conserved Asp134^3.32, which is known to cause 5-HT1B or 5-HT2B receptors to abolish the monoamine ligand binding as reported in the literature (Wang et al. [2013]). In this study, residues forming hydrophobic interactions with the substitution groups on the aporphine scaffold of (–)-crebanine (1) were selected for mutation as well and they are Thr139^3.37, Gly218^5.42, Ala222^5.46, and Leu209^ECL2. Effects of those mutations were tested with the CPM assay and the affinity MS assay (Table 2). In the affinity MS experiment, relative ligand-binding capacity (represented by binding %) to different mutants and the wild-type receptor was compared. […]
(§2) Purified 5-HT2C receptor protein was thoroughly mixed with CPM fluorescent dyes. […] Fluorescence signals, wavelength 387 nm (excitation) and 463 nm (emission), were monitored (Alexandrov et al. [2008]). […] The thermal denaturation of the samples was evaluated using the scatter plot curve, where the horizontal coordinates represented temperature and the vertical coordinates indicated normalized fluorescence intensity recorded for a particular temperature. […]

[4] = biological target: T4, 5-HT2C receptor A222^5.46F (Homo sapiens, UniProt P28335, A222F/DEL255-298/G251D/H250E/H252N/INS299[…]/L248D/M247A/M300L/T253W); assay: CPM thermal stability assay, 5-HT2C mutant A222F; type: binding; details: mutant A222^5.46F, n = 2
T4 construct: the N- and C-terminals were truncated by 39 and 65 residues, respectively; PreScission protease site + 10× His (C); made in house
T4 sequence (P28335 with tags, fused parts or gaps with the stated changes): as the sequence (P28335 with tags, fused parts or gaps with the stated changes limits assumed) above, with A183F counted along it
Excerpt: as §1, §2

[5] = biological target: T5, 5-HT2C receptor L209^ECL2F (Homo sapiens, UniProt P28335, DEL255-298/G251D/H250E/H252N/INS299[…]/L209F/L248D/M247A/M300L/T253W); assay: CPM thermal stability assay, 5-HT2C mutant L209F; type: binding; details: n = 2
T5 construct: the N- and C-terminals were truncated by 39 and 65 residues, respectively; PreScission protease site + 10× His (C); made in house
T5 sequence (P28335 with tags, fused parts or gaps with the stated changes): as the sequence (P28335 with tags, fused parts or gaps with the stated changes limits assumed) above, with L170F counted along it
Excerpt: as §1, §2

COc1ccc2c(c1OC)C[C@@H]1c3c(cc4c(c3-2)OCO4)CCN1C [Compound 1, (–)-crebanine]
(–)-Crebanine/MS relative ligand binding ([1]; WT receptor, n = 2, MS response of released ligand divided by total ligand in incubation sample): 27.57% | S/C ([1]; ratio of MS response in 5-HT2C incubation sample versus control (hydroxycarboxylic acid receptor 2), 500 nmol/L protein, 250 nmol/L ligand, n = 4): 9.15 ± 1.43 | IC50 [2]: 564 nM | (–)-Crebanine/CPM (Tm) ([3]; mutant A222^5.46V, n = 2): 59.55 °C | Tm value decrease versus wild-type ([3]; mutation Ala222^5.46Val): 0.38 °C | (–)-Crebanine/CPM (Tm) [4]: 55.70 °C | (–)-Crebanine/CPM (Tm) [5]: 55.46 °C
